Test results: ChEMBL document CHEMBL5518189, “Design, synthesis and biological evaluation of 1,2,3-triazole benzothiazole derivatives as tubulin polymerization inhibitors with potent anti-esophageal cancer activities” (Eur J Med Chem, 2024)
Calls of active or inactive are those of the source. The rule behind the calls is not given here.

How the values were obtained:
KYSE-30 [1] = test: Inhibition of colony formation in human KYSE-30 cells at 20 to 40 nM incubated for 7 days by crystal violet staining based analysis; type: functional, cell-based; settings: dose 20-40 nM, time 7.0 day
KYSE-30 [2] = test: Induction of apoptosis in human KYSE-30 cells assessed as downregulation of Bcl-2 level at 40 to 60 nM by flow cytometry analysis; type: functional, cell-based; settings: dose 40-60 nM
ECa-109 cell line [3] = test: Induction of apoptosis in human EC109 cells assessed as effect on bak level at 40 to 60 nM by flow cytometry analysis; type: functional, cell-based; settings: dose 40-60 nM
KYSE-30 [4] = test: Induction of apoptosis in human KYSE-30 cells assessed as effect on Mcl-1 level at 40 to 60 nM by flow cytometry analysis; type: functional, cell-based; settings: dose 40-60 nM
ECa-109 cell line [5] = test: Induction of cell cycle arrest in human EC109 cells assessed as upregulation of histone H3 phosphorylation level at 40 to 60 nM measured after 48 hrs by Western blot analysis; type: functional, cell-based; settings: dose 40-60 nM
KYSE-30 [6] = test: Induction of apoptosis in human KYSE-30 cells assessed as effect on bax level at 40 to 60 nM by flow cytometry analysis; type: functional, cell-based; settings: dose 40-60 nM
KYSE-30 [7] = test: Induction of cell cycle arrest in human KYSE-30 cells assessed as effect on cyclin B1 level at 40 to 60 nM measured after 48 hrs by Western blot analysis; type: functional, cell-based; settings: dose 40-60 nM
ECa-109 cell line [8] = test: Induction of apoptosis in human EC109 cells assessed as increase in cleaved PARP level at 40 to 100 nM measured after 48 hrs by Western blot analysis; type: functional, cell-based; settings: dose 40-100 nM
ECa-109 cell line [9] = test: Induction of cell cycle arrest in human EC109 cells assessed as accumulation of cells at G2/M phase at 0 to 40 nM measured after 48 hrs by propidium iodide staining based flow cytometry analysis (reference value: 14.57%); type: functional; settings: dose 0-40 nM
KYSE-30 [10] = test: Induction of apoptosis in human KYSE-30 cells measured after 48 hrs by annexin V-FITC and PI staining based flow cytometry analysis; type: functional, cell-based; settings: dose 20-40 nM
KYSE-30 [11] = test: Induction of cell cycle arrest in human KYSE-30 cells assessed as accumulation of cells at G2/M phase at 0 to 40 nM measured after 48 hrs by propidium iodide staining based flow cytometry analysis (reference value: 13.87%); type: functional; settings: dose 0-40 nM
KYSE-30 [12] = test: Antiproliferative activity against human KYSE-30 cells assessed as reduction in cell viability measured after 48 hrs by CCK-8 method; type: functional, cell-based; settings: dose 10-70 nM
ECa-109 [13] = test: Effect on MST2 level in human EC109 cells at 40 to 60 nM measured after 48 hrs; type: functional, cell-based; settings: dose 40-60 nM
Cell membrane [14] = test: Induction of mitochondrial membrane depolarization in human KYSE-30 cells at 40 to 60 nM incubated for 24 hrs by flow cytometry analysis; type: cell membranes; settings: dose 40-60 nM
ECa-109 [15] = test: Downregulation of MST phosphorylation level in human EC109 cells at 40 to 60 nM measured after 48 hrs; type: functional, cell-based; settings: dose 40-60 nM
ECa-109 cell line [16] = test: Induction of apoptosis in human EC109 cells assessed as effect on Mcl-1 level at 40 to 60 nM by flow cytometry analysis; type: functional, cell-based; settings: dose 40-60 nM
Cell membrane [17] = test: Induction of mitochondrial membrane depolarization in human EC109 cells assessed as increase in caspase 9 activity at 40 to 60 nM incubated for 24 hrs by flow cytometry analysis; type: cell membranes; settings: dose 40-60 nM
KYSE-30 [18] = test: Antiproliferative activity against human KYSE-30 cells assessed as reduction in cell viability by CCK-8 method; type: functional, cell-based; settings: time 12-48 hrs, TDE = time-dependent effect
Cell membrane [19] = test: Induction of mitochondrial membrane depolarization in human EC109 cells at 40 to 60 nM incubated for 24 hrs by flow cytometry analysis; type: cell membranes; settings: dose 40-60 nM
KYSE-30 [20] = test: Antiproliferative activity against human KYSE-30 cells assessed as reduction in cell viability at 70 nM measured after 48 hrs by CCK-8 method relative to control; type: functional
KYSE-30 [21] = test: Induction of cell cycle arrest in human KYSE-30 cells assessed as upregulation of histone H3phosphorylation level at 40 to 60 nM measured after 48 hrs by Western blot analysis; type: functional, cell-based; settings: dose 40-60 nM
KYSE-30 [22] = test: Induction of apoptosis in human KYSE-30 cells assessed as increase in Noxa expression level at 40 to 60 nM by flow cytometry analysis; type: functional, cell-based; settings: dose 40-60 nM
ECa-109 cell line [23] = test: Antiproliferative activity against human EC109 cells assessed as reduction in cell viability by CCK-8 method; type: functional, cell-based; settings: time 12-48 hrs, TDE = time-dependent effect
ECa-109 cell line [24] = test: Induction of cell cycle arrest in human EC109 cells assessed as effect on cyclinB1 level at 40 to 60 nM measured after 48 hrs by Western blot analysis; type: functional, cell-based; settings: dose 40-60 nM
ECa-109 cell line [25] = test: Induction of apoptosis in human EC109 cells assessed as increase in caspase 3 activity at 40 to 100 nM measured after 48 hrs by Western blot analysis; type: functional, cell-based; settings: dose 40-100 nM
KYSE-30 [26] = test: Induction of apoptosis in human KYSE-30 cells assessed as increase in cleaved PARP level at 40 to 100 nM measured after 48 hrs by Western blot analysis; type: functional, cell-based; settings: dose 40-100 nM
KYSE-30 [27] = test: Induction of apoptosis in human KYSE-30 cells assessed as effect on Bcl-xl level at 40 to 60 nM by flow cytometry analysis; type: functional, cell-based; settings: dose 40-60 nM
KYSE-30 [28] = test: Induction of apoptosis in human KYSE-30 cells assessed as effect on bak level at 40 to 60 nM by flow cytometry analysis; type: functional, cell-based; settings: dose 40-60 nM
ECa-109 cell line [29] = test: Induction of apoptosis in human EC109 cells assessed as effect on bax level at 40 to 60 nM by flow cytometry analysis; type: functional, cell-based; settings: dose 40-60 nM
Tubulin (Homo sapiens) = Tubulin (Homo sapiens) (UniProt P68371+Q9H4B7+P0DPH7+P68366+Q13509+Q71U36+P04350+Q3ZCM7+P07437+P68363+Q9BQE3+Q6PEY2+Q13885+Q9BVA1+Q9BUF5); test: Inhibition of tubulin polymerization in human KYSE-30 cells assessed as appearance of multinucleation at 20 to 40 nM incubated for 6 hrs by immunofluorescence staining based fluorescence microscopic analysis; type: cell-based; settings: dose 20-40 nM
KYSE-30 [30] = test: Antiproliferative activity against human KYSE-30 cells assessed as inhibition of cell growth measured after 48 hrs by CCK8 method; type: functional, cell-based; settings: KYSE-30, 48 h
ECa-109 cell line [31] = test: Induction of apoptosis in human EC109 cells assessed as increase in total number of apoptotic cells at 40 nM measured after 48 hrs by annexin V-FITC and PI staining based flow cytometry analysis (reference value: 4.93%); type: functional
ECa-109 [32] = test: Downregulation of YAP level in human EC109 cells at 60 nM incubated for 48 hrs in presence of MG132; type: functional, cell-based
KYSE-30 [33] = test: Induction of apoptosis in human KYSE-30 cells assessed as downregulation of XIAP level at 40 to 60 nM by flow cytometry analysis; type: functional, cell-based; settings: dose 40-60 nM
ECa-109 cell line [34] = test: Induction of apoptosis in human EC109 cells assessed as decrease in pro-caspase 3 level at 40 to 100 nM measured after 48 hrs by Western blot analysis; type: functional, cell-based; settings: dose 40-100 nM
ECa-109 cell line [35] = test: Induction of cell cycle arrest in human EC109 cells assessed as downregulation of CDK1 level at 40 to 60 nM measured after 48 hrs by Western blot analysis; type: functional, cell-based; settings: dose 40-60 nM
Tubulin = test: Inhibition of tubulin polymerization (unknown origin) measured upto 4500 secs by fluorescence based analysis; type: protein-complex assay, Homo sapiens
Cell membrane [36] = test: Induction of mitochondrial membrane depolarization in human KYSE-30 cells assessed as increase in caspase 9 activity at 40 to 60 nM incubated for 24 hrs by flow cytometry analysis; type: cell membranes; settings: dose 40-60 nM

## COc1ccc(CN(C(=O)Cn2cc(CSc3nc4ccccc4s3)nn2)c2cc(OC)c(OC)c(OC)c2)cc1O
KYSE-30 [1]
  inhibition: Active
KYSE-30 [2]
  Activity: Active
ECa-109 cell line [3]
  Activity: inactive
KYSE-30 [4]
  Activity: inactive
ECa-109 cell line [5]
  Activity: Active
KYSE-30 [6]
  Activity: inactive
KYSE-30 [7]
  Activity: inactive
ECa-109 cell line [8]
  Activity: Active
ECa-109 cell line [9]
  Activity: 55.65%
KYSE-30 [10]
  Activity: Dose-Dependent Effect
KYSE-30 [11]
  Activity: 28.15%
KYSE-30 [12]
  Activity: Dose-Dependent Effect
ECa-109 [13]
  Activity: inactive
Cell membrane [14]
  Activity: Active
ECa-109 [15]
  Activity: Active
ECa-109 cell line [16]
  Activity: inactive
Cell membrane [17]
  Activity: Active
KYSE-30 [18]
  Activity: Tde
Cell membrane [19]
  Activity: Active
KYSE-30 [20]
  Activity: >90%
KYSE-30 [21]
  Activity: Active
KYSE-30 [22]
  Activity: Active
ECa-109 cell line [23]
  Activity: Tde
ECa-109 cell line [24]
  Activity: inactive
ECa-109 cell line [25]
  Activity: Active
KYSE-30 [26]
  Activity: Active
KYSE-30 [27]
  Activity: inactive
KYSE-30 [28]
  Activity: inactive
ECa-109 cell line [29]
  Activity: inactive
Tubulin (Homo sapiens)
  inhibition: Active
KYSE-30 [30]
  IC50: 42 nM
ECa-109 cell line [31]
  Activity: 31.07%
ECa-109 [32]
  Activity: inactive
KYSE-30 [33]
  Activity: Active
ECa-109 cell line [34]
  Activity: Active
ECa-109 cell line [35]
  Activity: Active
Tubulin
  IC50: 446 nM
Cell membrane [36]
  Activity: Active
